Results published in ChEMBL document CHEMBL1201862, “PubChem BioAssay data set” (2004).
Calls of active or inactive are those of the source.

Assays:
[1] = target: Neurotensin receptor type 1 (Homo sapiens, UniProt P30989); format: functional;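 note: Image-based confirmatory dose-response assay measuring agonist activity at NTR1; NTR1-expressing U2OS osteosarcoma cells imaged for beta-arrestin GFP spot formation; agonist potency where compounds increase beta-arrestin recruitment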
[2] = Luminescence Cell-Based Dose Retest to Confirm Inhibitors of Cancer Stem Cells. [Related pubchem assays (depositor defined):AID2717, AID2721]; format: functional; settings: Homo sapiens
[3] = luciferase reporter signal reduction – luminescence, H4-C neuroglioblastoma cells, dose response (AID 2458); format: functional, cell-based;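 note: H4 neuroglioblastoma cells stably carrying a luciferase reporter gene fusion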
[4] = luciferase reporter signal suppression in cells – H4 neuroglioma cells, luminescence, dose response (AID 1990); format: functional, cell-based
Streptococcus = experiment: GAS UMAA2166 growth inhibition – luminescence, BacTiterGlo, counter-screen for streptokinase expression inhibitor project, dose response (AID 1915); format: functional, organism-based;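 note: potency for reduction of bacterial viability or growth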
[5] = alpha-synuclein stem-loop luciferase translation blockers – H4 neuroglioma cells, luminescence, confirmation (AID 1988); format: functional, cell-based
[6] = HEK-293T viability loss after treatment – luminescence, T-cell screen hits, cytotoxicity control for TCR NF-kB inhibitor project, dose response (AID 489026); format: functional, cell-based;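 note: cells exposed to compound about 14 hours before the viability readout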
[7] = system: Streptococcus sp. 'group A'; experiment: Streptococcus pyogenes SK(-)GAS viability under kanamycin – luminescence, BacTiterGlo, confirmation, counter-screen for streptokinase expression inhibitor project, dose response (AID 1900); format: functional, organism-based
[8] = Luminescence Cell-Based Dose Response HTS to Identify Inhibitors of 5'UTR Stem-Loop Driven Prion Protein mRNA Translation in H4 Neuroglioblastoma Cells. [Related pubchem assays: 1827 (Project Summary), 1813 (Primary HTS)]; format: functional
Streptokinase A = target: T1, Streptokinase A (Streptococcus pyogenes serotype M1, UniProt P10520); experiment: viability-normalized secreted streptokinase activity reduction – plasminogen activation absorbance, OD405, dose response (AID 1914); format: functional, Streptococcus pyogenes M1 GAS;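 note: secreted streptokinase activity via plasminogen activation per viability signal from cell pellet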
T1 sequence (P10520 whole entry): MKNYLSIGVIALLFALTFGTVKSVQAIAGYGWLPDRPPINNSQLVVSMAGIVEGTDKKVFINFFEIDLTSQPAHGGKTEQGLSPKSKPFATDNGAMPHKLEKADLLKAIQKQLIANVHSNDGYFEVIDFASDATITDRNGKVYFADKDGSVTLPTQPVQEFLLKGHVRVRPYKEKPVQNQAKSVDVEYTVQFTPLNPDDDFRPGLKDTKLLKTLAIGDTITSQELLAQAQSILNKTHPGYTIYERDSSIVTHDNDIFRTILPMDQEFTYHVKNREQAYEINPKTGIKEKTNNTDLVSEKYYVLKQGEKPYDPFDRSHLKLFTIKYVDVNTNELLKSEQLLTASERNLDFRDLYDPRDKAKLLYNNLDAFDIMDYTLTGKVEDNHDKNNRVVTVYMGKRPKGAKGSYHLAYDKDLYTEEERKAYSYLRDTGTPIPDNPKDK

Estrogen receptor = target: T2, Estrogen receptor (Homo sapiens, UniProt P03372); experiment: ERα coactivator recruitment enhancers – biochemical, TR-FRET, ERα LBD, dose response (AID 737)
T2 sequence (P03372 whole entry): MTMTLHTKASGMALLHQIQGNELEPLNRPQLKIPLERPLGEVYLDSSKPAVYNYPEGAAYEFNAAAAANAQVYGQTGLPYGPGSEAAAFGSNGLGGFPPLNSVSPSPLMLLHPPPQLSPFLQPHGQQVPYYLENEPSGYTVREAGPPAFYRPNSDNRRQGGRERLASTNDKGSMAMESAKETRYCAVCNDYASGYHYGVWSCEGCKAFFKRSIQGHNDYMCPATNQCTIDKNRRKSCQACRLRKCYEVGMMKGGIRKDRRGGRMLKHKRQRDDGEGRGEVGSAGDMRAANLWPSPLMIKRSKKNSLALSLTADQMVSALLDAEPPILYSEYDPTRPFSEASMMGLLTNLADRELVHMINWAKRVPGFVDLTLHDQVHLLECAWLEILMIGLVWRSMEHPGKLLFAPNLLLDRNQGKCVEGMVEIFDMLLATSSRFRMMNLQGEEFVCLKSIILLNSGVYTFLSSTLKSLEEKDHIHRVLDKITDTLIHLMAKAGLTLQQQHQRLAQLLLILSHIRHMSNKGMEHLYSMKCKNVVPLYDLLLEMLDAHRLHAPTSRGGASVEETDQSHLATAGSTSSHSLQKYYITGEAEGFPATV

[9] = viability loss of HPDE-C7K cells – cell-based, fluorescence, HTS, primary screen (AID 431); format: functional; settings: Homo sapiens
[10] = alpha-synuclein stem-loop translation blockers – luminescence, H4 neuroglioblastoma cells, dose confirmation, confirmation (AID 2454); format: functional, cell-based;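 note: H4 neuroglioblastoma cells carrying an alpha-synuclein 5'UTR luciferase reporter; potency for inhibition of the luciferase signal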
cells = format: functional, cell-based
[11] = HPDE-C7 pancreatic duct cell viability loss – fluorescence, HTS (AID 430); format: functional, cell-based; settings: Homo sapiens
[12] = target: T3, Small ubiquitin-related modifier 1 (Homo sapiens, UniProt P63165); experiment: SUMO1 protein-protein binding blockers, potency – biochemical, FRET, dose response (AID 624383); format: functional; settings: read-out: IC50_Mean
[13] = target: T3, Small ubiquitin-related modifier 1; experiment: SUMO1 protein interaction blockers, potency – biochemical, fluorescence polarization, uHTS hits, dose response (AID 624382); format: functional; settings: read-out: IC50_Mean
[14] = target: 72 kDa type IV collagenase (Homo sapiens, UniProt P08253); experiment: Dose Response validation of uHTS RPN11 inhibitor hits using a MMP-2 Fluorescence assay.; format: functional
SUMO-activating enzyme [15] = target: T4, SUMO-activating enzyme (Homo sapiens, UniProt Q9UBT2); experiment: blockers of SAE1/SAE2–UBC9 SUMO transfer – biochemical, HTRF, uHTS, primary screen (AID 2006); format: protein-complex assay
[16] = target: 26S proteasome non-ATPase regulatory subunit 14 (Homo sapiens, UniProt O00487); experiment: inhibition of proteasome subunit RPN11 – biochemical, fluorescence polarization, uHTS hits, confirmation (AID 602368); format: functional
Prothrombin = Prothrombin (Bos taurus, UniProt P00735); experiment: thrombin protease inhibitors – biochemical, fluorescence polarization, uHTS hits, dose response (AID 602369); format: functional
SUMO-activating enzyme [17] = target: T4, SUMO-activating enzyme; experiment: blockers of UBC9-mediated SUMO conjugation – biochemical, AlphaScreen, SUMOylation inhibitor project, confirmation (AID 2018); format: functional
[18] = target: T5, Neuropeptide Y receptor type 2 (Homo sapiens, UniProt P49146); format: functional, cell-based;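 note: HEK293 cells expressing the receptor and a CNG channel; stimulus was NPY near EC95 followed by isoproterenol to raise cAMP; antagonist potency measured as restoring cAMP signal that NPY suppresses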
T5 sequence (P49146 whole entry): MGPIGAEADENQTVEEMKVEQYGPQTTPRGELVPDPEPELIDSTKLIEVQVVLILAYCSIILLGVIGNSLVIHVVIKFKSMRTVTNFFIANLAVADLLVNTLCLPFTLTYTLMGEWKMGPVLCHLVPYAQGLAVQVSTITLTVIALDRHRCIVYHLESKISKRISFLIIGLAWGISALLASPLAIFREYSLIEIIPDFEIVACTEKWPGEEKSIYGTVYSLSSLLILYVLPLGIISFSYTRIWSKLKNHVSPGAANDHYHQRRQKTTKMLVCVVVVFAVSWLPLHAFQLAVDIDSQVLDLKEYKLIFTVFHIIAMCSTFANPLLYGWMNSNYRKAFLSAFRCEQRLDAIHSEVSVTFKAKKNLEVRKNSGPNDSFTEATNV

[19] = target: T6, Neuropeptide Y receptor type 1 (Homo sapiens, UniProt P25929); format: functional;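 note: HEK293 cells with a CNG channel challenged with NPY then isoproterenol; potency as antagonist that reverses NPY suppression of cAMP signal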
T6 sequence (P25929 whole entry): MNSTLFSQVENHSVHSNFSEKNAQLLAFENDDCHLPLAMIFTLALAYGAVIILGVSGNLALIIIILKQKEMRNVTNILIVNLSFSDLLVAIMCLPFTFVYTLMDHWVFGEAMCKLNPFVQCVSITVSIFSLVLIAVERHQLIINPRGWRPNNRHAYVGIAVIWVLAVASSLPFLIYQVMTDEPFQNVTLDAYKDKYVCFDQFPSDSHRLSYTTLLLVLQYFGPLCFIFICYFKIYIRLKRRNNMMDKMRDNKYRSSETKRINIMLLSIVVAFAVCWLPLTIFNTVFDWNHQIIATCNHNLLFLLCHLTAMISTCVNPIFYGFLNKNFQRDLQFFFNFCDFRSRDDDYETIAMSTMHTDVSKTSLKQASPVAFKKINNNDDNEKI

Cytochrome P450 3A4 = Cytochrome P450 3A4 (Homo sapiens, UniProt P08684); settings: Potency;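 note: confirmatory qHTS run detecting inhibitors and substrates of CYP3A4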
[20] = target: G-protein coupled receptor 35 (Homo sapiens, UniProt Q9HC97); experiment: inhibition of zaprinast-stimulated GPR35 beta-arrestin translocation – imaging, U2OS, beta-arrestin-GFP, zaprinast agonist, primary screen (AID 2058); format: functional;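 note: antagonist potency meaning inhibition of agonist-induced arrestin redistribution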
[21] = target: Melanin-concentrating hormone receptor 1 (Homo sapiens, UniProt Q99705); experiment: Late-stage fluorescence-based counterscreen for antagonists of the G-protein coupled receptor 7 (GPR7): cell-based dose response assay to identify antagonists of the melanin-concentrating hormone receptor 1 (MCHR1). [Related pubchem assays (depositor defined):AID1861, AID1880, AID1952, AID2148, AID2251, AID2257, AID485339]; format: functional;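 note: stimulated with 30 nM MCH peptide agonist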
Melanin-concentrating hormone receptor 1, sequence (Q99705 whole entry): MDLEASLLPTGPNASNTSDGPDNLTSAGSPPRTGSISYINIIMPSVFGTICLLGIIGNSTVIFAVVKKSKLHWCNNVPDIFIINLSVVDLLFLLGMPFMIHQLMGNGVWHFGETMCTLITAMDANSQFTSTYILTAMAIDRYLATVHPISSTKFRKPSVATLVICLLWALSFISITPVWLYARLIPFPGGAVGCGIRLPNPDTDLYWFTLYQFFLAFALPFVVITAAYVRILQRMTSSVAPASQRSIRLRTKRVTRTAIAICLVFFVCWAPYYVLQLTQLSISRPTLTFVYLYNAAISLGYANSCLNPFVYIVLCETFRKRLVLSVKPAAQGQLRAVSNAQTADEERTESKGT

T4 sequence (Q9UBE0 whole entry): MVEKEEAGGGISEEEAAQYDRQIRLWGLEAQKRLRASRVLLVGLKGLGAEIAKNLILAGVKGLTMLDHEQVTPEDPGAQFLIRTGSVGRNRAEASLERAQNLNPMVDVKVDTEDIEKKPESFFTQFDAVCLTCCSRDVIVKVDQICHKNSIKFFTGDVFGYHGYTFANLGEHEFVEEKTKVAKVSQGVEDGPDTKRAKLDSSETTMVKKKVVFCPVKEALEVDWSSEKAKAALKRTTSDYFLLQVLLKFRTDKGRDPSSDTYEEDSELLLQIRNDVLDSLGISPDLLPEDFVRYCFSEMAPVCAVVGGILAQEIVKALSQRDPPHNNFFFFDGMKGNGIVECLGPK
T4 sequence (Q9UBT2 whole entry): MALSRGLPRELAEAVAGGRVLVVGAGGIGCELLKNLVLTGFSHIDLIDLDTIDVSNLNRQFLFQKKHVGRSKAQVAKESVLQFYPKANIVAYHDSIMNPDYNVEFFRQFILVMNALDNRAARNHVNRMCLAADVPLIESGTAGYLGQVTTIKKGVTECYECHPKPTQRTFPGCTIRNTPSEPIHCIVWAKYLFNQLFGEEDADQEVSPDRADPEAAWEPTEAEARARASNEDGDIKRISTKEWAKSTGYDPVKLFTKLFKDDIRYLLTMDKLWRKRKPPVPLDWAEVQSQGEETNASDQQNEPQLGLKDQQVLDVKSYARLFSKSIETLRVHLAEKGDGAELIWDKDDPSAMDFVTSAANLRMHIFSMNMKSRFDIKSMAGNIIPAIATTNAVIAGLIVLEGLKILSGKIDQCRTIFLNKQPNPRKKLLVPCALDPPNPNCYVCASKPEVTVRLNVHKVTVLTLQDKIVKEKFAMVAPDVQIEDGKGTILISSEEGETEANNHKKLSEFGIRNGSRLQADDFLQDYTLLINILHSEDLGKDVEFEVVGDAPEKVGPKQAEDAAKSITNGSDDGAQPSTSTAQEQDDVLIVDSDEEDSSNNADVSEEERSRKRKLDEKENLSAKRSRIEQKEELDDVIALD
T3 sequence (P63165 whole entry): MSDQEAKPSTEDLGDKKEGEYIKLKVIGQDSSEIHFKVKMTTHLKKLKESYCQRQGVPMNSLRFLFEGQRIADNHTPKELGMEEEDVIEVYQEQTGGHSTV
Cytochrome P450 3A4, sequence (P08684 whole entry): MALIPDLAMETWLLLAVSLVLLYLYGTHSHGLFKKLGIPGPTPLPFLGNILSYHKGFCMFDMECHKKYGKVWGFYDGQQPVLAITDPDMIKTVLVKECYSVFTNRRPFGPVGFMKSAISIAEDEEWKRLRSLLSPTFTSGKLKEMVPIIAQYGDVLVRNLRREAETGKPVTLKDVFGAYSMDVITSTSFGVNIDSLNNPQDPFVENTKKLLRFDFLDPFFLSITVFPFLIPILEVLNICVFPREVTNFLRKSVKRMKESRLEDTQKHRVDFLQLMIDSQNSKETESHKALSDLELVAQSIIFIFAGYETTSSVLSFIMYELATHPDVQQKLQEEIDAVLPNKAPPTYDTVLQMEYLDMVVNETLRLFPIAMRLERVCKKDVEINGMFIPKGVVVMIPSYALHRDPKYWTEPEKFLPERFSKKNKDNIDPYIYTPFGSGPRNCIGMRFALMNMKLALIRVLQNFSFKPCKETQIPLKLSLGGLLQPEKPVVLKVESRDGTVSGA
Neurotensin receptor type 1, sequence (P30989 whole entry): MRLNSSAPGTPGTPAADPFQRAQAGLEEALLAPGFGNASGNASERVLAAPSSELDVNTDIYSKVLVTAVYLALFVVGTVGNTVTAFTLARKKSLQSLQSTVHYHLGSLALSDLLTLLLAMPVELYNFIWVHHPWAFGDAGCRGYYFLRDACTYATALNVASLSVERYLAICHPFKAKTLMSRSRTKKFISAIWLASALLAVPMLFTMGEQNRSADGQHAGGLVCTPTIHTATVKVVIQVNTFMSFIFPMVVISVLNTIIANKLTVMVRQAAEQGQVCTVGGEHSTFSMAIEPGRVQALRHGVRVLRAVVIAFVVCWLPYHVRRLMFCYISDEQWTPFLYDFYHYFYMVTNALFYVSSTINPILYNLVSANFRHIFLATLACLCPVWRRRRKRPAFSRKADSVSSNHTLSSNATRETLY
26S proteasome non-ATPase regulatory subunit 14, sequence (O00487 whole entry): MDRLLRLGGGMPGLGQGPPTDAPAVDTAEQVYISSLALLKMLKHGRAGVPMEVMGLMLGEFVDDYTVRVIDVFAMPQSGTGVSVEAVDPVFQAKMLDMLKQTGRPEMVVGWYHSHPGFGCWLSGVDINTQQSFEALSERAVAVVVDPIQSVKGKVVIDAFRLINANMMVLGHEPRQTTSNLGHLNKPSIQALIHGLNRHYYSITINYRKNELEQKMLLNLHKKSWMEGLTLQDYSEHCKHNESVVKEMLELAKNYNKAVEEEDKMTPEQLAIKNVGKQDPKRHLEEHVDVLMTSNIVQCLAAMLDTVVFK
G-protein coupled receptor 35, sequence (Q9HC97 whole entry): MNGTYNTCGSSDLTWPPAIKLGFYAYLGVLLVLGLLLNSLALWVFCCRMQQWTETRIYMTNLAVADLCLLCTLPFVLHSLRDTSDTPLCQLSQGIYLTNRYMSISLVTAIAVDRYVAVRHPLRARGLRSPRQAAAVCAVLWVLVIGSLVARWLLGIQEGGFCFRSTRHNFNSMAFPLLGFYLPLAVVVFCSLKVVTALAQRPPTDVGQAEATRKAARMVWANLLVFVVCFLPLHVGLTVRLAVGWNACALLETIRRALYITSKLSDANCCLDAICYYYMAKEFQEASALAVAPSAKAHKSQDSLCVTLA
72 kDa type IV collagenase, sequence (P08253 whole entry): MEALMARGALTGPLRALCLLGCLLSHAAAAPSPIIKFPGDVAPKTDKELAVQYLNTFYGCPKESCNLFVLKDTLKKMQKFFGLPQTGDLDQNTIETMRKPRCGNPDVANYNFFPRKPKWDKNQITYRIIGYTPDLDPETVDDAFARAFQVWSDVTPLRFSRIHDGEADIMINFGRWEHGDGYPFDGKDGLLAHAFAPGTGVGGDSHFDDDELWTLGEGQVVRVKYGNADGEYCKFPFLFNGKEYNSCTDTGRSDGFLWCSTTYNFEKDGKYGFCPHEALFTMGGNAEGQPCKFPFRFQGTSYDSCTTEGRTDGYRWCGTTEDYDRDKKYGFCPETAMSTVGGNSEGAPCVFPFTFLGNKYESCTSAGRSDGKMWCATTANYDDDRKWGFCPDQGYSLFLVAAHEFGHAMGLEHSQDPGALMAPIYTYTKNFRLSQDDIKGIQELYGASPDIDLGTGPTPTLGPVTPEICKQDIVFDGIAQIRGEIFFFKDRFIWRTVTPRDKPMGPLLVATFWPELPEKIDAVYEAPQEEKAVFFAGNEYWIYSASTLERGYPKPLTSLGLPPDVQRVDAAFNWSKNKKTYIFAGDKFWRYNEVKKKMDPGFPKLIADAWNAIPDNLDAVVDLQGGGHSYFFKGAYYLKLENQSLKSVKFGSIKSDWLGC

CCCCNc1c(-c2cccc(Sc3ccc(OC)cc3)c2)nc2ccccn12
EC50 [1]: 27.5 µM (inactive)
AC50 [2]: 5.22 µM (active)

CCN(CC)c1ccc(-c2nn3c(-c4ccccc4OC)nnc3s2)cc1
EC50 [3]: 0.214 µM (active)
EC50 [4]: < 0.1 µM (active)
EC50 (Streptococcus): 8.67 µM (active)
EC50 [5]: < 0.1 µM (active)
IC50 [6]: 49.9 µM (inactive)
EC50 [7]: 6.86 µM (active)
EC50 [8]: 8.94 µM (active)
EC50 (Streptokinase A): > 150 µM (not active)
EC50 (Estrogen receptor): 18.2 µM (active)
EC50 [9]: > 20 µM (not active)
EC50 [10]: 0.17 µM (active)
EC50 (cells): 0.346 µM (active)
EC50 [11]: > 20 µM (not active)

Sc1nnc(-c2cc(-c3ccccc3)[nH]n2)n1/N=C/c1cccc(Cl)c1
EC50 (Streptococcus): 84.4 µM (active)
IC50 [12]: 5.8 µM (active)
IC50 [13]: > 66.6 µM (inactive)
IC50 [14]: > 100 µM (inactive)
EC50 [7]: 16.7 µM (active)
EC50 (Streptokinase A): > 150 µM (not active)
IC50 (SUMO-activating enzyme [15]): 11.1 µM (active)
IC50 [16]: 11.4 µM (active)
IC50 (Prothrombin): 33.8 µM (active)
IC50 (SUMO-activating enzyme [17]): 3.34 µM (active)

COc1ccc(-c2[nH]nc3c2C(c2ccc(OC)c(OC)c2)N(c2ccccc2)C3=O)cc1 (stereo not given)
IC50 [18]: 4.36 µM (active)
IC50 [19]: 7.8 µM (active)

CCCn1c(-c2ccc(F)cc2)nc2c(NCC3CCN(C)CC3)nc(C)nc21
AC50 (Cytochrome P450 3A4): 15.8 µM (inconclusive)

CC(=O)OC1CC2C(C)(C)C=CC(=O)[C@@]2(C)C2CC[C@@]3(C)C(c4ccoc4)OC(=O)C4OC43[C@]12C (stereo not given in full)
AC50 (Cytochrome P450 3A4): 15.8 µM (inconclusive)

Cc1cccc(NC(=O)c2nc[nH]c2C(=O)N[C@@H](Cc2ccccc2)C(=O)OC(C)(C)C)c1
EC50 [1]: 17.9 µM (active)
EC50 (Streptokinase A): > 150 µM (not active)

CCOC(=O)c1c(-c2ccccc2)csc1NC(=O)/C(C#N)=C/c1ccc(O)c(OC)c1
IC50 [20]: 2.75 µM (active)

COC(=O)c1cc2occc2n1Cc1nc(-c2ccccc2Cl)oc1C
IC50 [18]: 8.2 µM (active)
IC50 [19]: 7.7 µM (active)

COc1ccc(Oc2c(Cl)cnn(-c3cccc4c3CCCC4)c2=O)cc1
IC50 [21]: 4.1 µM (active)
